We go through 15 compounds from ChEMBL document CHEMBL5665443, “Enzyme Inhibitor Single Concentration assay results for EUbOPEN Chemogenomics Library” (2024).

Where “and” joins values, the source holds several entries; their conditions need not be identical. Identical values can stand only once.

The target in assay [1] is DNA-3-methyladenine glycosylase (Homo sapiens) (UniProt P29372). The conditions noted are these: Compound Concentration 10.0 uM, Hit No.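 Also: enzyme assay where MPG cuts a quenched duplex DNA oligonucleotide probe, paired with APE1 for strand incision and turnover, read as fluorescence at 594 nm.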
Sequence of DNA-3-methyladenine glycosylase (Homo sapiens) (P29372 whole entry): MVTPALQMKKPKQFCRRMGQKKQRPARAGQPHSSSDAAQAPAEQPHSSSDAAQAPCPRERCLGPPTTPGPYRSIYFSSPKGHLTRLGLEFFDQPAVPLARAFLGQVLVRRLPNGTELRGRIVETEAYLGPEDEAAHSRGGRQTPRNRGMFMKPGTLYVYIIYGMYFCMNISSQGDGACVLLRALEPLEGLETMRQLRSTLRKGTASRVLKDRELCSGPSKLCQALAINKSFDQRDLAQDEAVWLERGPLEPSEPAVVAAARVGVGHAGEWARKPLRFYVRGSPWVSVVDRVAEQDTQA
Description: Inhibition of MPG by quantifying inhibition of MPG-mediated cleavage and dissociation of quenched duplex DNA oligonucleotides, measured as fluorescence at 594 nm. To generate a functional strand incision and increase turn-over this assay is coupled to APE1.
Assay [2] addresses T1, Endonuclease 8-like 2 (Homo sapiens) (UniProt Q969S2).
T1 sequence (whole entry): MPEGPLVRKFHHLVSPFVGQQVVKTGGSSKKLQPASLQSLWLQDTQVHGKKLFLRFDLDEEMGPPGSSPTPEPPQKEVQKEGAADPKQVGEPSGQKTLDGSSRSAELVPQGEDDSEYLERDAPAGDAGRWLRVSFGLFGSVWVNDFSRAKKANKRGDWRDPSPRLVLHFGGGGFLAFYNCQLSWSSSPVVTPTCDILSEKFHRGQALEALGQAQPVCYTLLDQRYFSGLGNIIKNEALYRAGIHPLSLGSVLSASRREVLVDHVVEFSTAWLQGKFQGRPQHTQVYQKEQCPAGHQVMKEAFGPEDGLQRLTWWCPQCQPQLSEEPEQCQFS
To be noted: Compound Concentration 10.0 uM, Hit No.
Description: Inhibition of NEIL2 by quantifying inhibition of NEIL2-mediated cleavage and dissociation of quenched duplex DNA oligonucleotides, measured as fluorescence at 594 nm.

Assay [3] addresses Uracil-DNA glycosylase (Homo sapiens) (UniProt P13051). To be noted: Compound Concentration 10.0 uM, Hit No.
Description: Inhibition of UNG by quantifying inhibition of UNG-mediated cleavage and dissociation of quenched duplex DNA oligonucleotides, measured as fluorescence at 594 nm. To generate a functional strand incision and increase turn-over this assay is coupled to APE1.
Assay [4] addresses Methyl-CpG-binding domain protein 4 (Homo sapiens) (UniProt O95243). The conditions noted are these: Compound Concentration 10.0 uM, Hit No.
Description: Inhibition of MBD4 by quantifying inhibition of MBD4-mediated cleavage and dissociation of quenched duplex DNA oligonucleotides, measured as fluorescence at 594 nm. To generate a functional strand incision and increase turn-over this assay is coupled to APE1.
For assay [5], the target named is T2, Single-strand selective monofunctional uracil DNA glycosylase (Homo sapiens) (UniProt Q53HV7).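 Also: enzymatic SMUG1 assay coupled with APE1, reading fluorescence at 594 nm released when a quenched double-stranded DNA oligonucleotide substrate is cleaved and separated.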
T2 sequence (whole entry): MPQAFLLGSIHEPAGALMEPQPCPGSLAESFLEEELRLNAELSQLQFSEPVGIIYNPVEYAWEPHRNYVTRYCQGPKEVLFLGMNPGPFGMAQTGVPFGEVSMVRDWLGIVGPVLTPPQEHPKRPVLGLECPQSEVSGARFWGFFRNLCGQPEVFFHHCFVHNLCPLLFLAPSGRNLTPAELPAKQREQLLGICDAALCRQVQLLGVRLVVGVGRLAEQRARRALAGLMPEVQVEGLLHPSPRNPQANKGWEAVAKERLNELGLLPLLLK
The conditions noted are these: Compound Concentration 10.0 uM, Hit No.
Description: Inhibition of SMUG1 by quantifying inhibition of SMUG1-mediated cleavage and dissociation of quenched duplex DNA oligonucleotides, measured as fluorescence at 594 nm. To generate a functional strand incision and increase turn-over this assay is coupled to APE1.

Assay [6] has as its target T3, Endonuclease III-like protein 1 (Homo sapiens) (UniProt P78549).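 Also: enzyme assay tracking NTHL1 cutting and release of a quenched double-stranded DNA oligo substrate, read as fluorescence at 594 nm.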
T3 sequence (whole entry): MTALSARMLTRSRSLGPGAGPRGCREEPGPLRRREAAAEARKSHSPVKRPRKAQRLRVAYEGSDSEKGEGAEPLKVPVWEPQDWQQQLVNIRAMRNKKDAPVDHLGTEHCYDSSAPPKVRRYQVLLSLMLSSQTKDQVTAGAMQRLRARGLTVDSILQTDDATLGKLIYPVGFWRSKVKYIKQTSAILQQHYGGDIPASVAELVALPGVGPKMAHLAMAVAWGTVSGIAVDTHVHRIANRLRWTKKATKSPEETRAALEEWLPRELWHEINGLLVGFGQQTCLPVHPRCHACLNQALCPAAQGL
To be noted: Compound Concentration 10.0 uM.
Description: Inhibition of NTHL1 by quantifying inhibition of NTHL1-mediated cleavage and dissociation of quenched duplex DNA oligonucleotides, measured as fluorescence at 594 nm.

Assay [7] deals with T4, Adenine DNA glycosylase (Homo sapiens) (UniProt Q9UIF7).
T4 sequence (whole entry): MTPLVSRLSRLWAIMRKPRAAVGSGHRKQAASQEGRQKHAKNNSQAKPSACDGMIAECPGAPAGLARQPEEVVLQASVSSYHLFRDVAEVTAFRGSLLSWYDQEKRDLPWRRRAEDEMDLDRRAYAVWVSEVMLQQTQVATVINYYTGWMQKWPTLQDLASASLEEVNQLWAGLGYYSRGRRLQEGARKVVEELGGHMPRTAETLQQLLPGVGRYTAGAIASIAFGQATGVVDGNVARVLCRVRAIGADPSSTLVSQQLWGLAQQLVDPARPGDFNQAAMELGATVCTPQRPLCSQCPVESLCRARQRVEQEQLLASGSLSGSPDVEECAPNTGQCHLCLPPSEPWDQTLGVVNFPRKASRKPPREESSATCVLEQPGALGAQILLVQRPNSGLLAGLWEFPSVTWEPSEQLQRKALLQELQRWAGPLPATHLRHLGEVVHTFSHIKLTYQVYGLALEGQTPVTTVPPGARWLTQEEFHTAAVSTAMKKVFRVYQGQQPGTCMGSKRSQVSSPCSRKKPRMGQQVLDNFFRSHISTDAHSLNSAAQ
The conditions noted are these: Compound Concentration 10.0 uM, Hit No.
Description: Inhibition of MUTYH by quantifying inhibition of MUTYH-mediated cleavage and dissociation of quenched duplex DNA oligonucleotides, measured as fluorescence at 594 nm. To generate a functional strand incision and increase turn-over this assay is coupled to APE1.

Assay [8] has as its target G/T mismatch-specific thymine DNA glycosylase (Homo sapiens) (UniProt Q13569). The conditions noted are these: Compound Concentration 10.0 uM.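 Also: human TDG cleavage of quenched duplex DNA oligonucleotides coupled to APE1, strand release read as fluorescence at 594 nm, inhibition of TDG activity.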
Description: Inhibition of TDG by quantifying inhibition of TDG-mediated cleavage and dissociation of quenched duplex DNA oligonucleotides, measured as fluorescence at 594 nm. To generate a functional strand incision and increase turn-over this assay is coupled to APE1.
Assay [9] concerns the target N-glycosylase/DNA lyase (Homo sapiens) (UniProt O15527). The conditions noted are these: Compound Concentration 10.0 uM.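 Also: OGG1 cleavage of a quenched duplex DNA oligonucleotide, coupled to APE1 for strand incision, read as fluorescence at 594 nm.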
Description: Inhibition of OGG1 by quantifying inhibition of OGG1-mediated cleavage and dissociation of quenched duplex DNA oligonucleotides, measured as fluorescence at 594 nm. To generate a functional strand incision and increase turn-over this assay is coupled to APE1.
Assay [10] concerns the target Endonuclease 8-like 1 (Homo sapiens) (UniProt Q96FI4). To be noted: Compound Concentration 10.0 uM, Hit No.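 Also: fluorescence at 594 nm from quenched duplex DNA oligonucleotides released by NEIL1 cleavage and strand separation, reported as reduction of this enzyme activity.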
Description: Inhibition of NEIL1 by quantifying inhibition of NEIL1-mediated cleavage and dissociation of quenched duplex DNA oligonucleotides, measured as fluorescence at 594 nm.

Sequence of G/T mismatch-specific thymine DNA glycosylase (Homo sapiens) (Q13569 whole entry): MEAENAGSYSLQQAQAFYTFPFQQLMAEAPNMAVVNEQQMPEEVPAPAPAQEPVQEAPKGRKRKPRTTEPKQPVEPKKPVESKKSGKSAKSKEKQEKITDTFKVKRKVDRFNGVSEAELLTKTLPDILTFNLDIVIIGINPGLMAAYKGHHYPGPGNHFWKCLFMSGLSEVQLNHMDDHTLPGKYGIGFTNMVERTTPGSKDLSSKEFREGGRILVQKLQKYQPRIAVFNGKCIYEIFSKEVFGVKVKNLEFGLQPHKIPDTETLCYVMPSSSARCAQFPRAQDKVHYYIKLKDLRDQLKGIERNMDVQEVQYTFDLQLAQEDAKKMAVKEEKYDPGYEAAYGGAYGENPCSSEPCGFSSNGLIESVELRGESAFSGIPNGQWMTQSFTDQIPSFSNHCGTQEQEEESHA
Sequence of Uracil-DNA glycosylase (Homo sapiens) (P13051 whole entry, the tested form may be a part): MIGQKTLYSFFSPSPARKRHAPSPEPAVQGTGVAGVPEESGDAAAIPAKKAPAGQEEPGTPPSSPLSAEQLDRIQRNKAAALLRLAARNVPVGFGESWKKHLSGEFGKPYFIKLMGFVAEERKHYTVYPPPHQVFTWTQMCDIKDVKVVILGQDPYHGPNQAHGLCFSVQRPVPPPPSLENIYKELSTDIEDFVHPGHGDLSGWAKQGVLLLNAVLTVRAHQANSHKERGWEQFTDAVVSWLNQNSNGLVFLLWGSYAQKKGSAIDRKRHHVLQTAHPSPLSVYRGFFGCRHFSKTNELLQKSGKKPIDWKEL
Sequence of Methyl-CpG-binding domain protein 4 (Homo sapiens) (O95243 whole entry, the tested form may be a part): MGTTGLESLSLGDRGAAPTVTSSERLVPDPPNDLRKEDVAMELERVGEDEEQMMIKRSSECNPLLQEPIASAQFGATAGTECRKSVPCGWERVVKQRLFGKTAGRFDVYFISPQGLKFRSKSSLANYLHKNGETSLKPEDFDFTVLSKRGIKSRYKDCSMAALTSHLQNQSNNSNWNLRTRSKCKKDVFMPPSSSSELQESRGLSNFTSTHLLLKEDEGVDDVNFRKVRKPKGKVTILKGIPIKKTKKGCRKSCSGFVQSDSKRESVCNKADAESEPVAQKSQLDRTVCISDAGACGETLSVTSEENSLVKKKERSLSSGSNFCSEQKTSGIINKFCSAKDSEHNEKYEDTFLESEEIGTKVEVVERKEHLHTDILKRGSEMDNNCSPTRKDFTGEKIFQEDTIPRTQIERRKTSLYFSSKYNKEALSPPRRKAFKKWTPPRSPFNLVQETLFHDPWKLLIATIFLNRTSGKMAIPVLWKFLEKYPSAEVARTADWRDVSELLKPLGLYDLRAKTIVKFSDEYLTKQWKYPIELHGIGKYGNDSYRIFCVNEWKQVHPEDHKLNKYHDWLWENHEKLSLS
Sequence of Endonuclease 8-like 1 (Homo sapiens) (Q96FI4 whole entry): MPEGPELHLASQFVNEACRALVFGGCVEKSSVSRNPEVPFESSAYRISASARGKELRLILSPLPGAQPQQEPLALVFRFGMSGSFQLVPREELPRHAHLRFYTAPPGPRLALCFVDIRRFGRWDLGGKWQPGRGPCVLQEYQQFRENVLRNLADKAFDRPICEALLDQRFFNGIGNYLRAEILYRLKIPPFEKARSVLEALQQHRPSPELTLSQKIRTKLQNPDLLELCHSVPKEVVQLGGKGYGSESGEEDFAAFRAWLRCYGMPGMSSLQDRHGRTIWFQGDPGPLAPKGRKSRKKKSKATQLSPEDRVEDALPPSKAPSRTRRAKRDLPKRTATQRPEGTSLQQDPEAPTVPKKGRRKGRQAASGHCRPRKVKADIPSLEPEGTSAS
Sequence of N-glycosylase/DNA lyase (Homo sapiens) (O15527 whole entry): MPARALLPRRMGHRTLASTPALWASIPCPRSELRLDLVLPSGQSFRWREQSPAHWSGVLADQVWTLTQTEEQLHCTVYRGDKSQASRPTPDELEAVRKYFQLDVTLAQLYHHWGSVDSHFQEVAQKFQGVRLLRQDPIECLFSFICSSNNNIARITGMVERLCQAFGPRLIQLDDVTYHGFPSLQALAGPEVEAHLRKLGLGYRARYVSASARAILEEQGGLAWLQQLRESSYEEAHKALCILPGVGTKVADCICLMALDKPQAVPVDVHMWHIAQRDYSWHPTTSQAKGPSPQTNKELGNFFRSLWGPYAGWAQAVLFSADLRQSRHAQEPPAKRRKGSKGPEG

A word on the inhibition: it is the relative decrease from the control value, in per cent. With `CCCCCN1C(=O)C2(COc3cc4c(cc32)OCO4)c2ccccc21` (stereo not given), the inhibition is 32.6% in assay [1]; 0.924% in [2]; -5.87% in [3]; 29% in assay [4]; -6.34% in assay [5]; 18.7% in assay [6] (Hit No). Also, the inhibition in assay [7] worked out at 13.2%; in [8] (Hit No), 18.1%; in [9] (Hit No), 1.71%; in assay [10] it was 0.00926%.
For `CCCN(CCC)CCc1cccc2c1CC(=O)N2`, the inhibition in [1] was -1.21%; in assay [2], 1.01%; in assay [3], -9.36%; in [4], 2.3%; in assay [5] it was -5.12%; in [6] (Hit No), -4.67%. The inhibition in assay [7] was 10.1%; in assay [8] (Hit No), 8.55%; in assay [9] (Hit No) it was -5.66%; in assay [10], 7.51%.
For the compound `C[C@H](N)COC(=O)[C@@H](CCCCN)NC(=O)Cc1c(-c2ccc3ccccc3c2)[nH]c2c1ccc1ccccc12`, the inhibition in assay [1] was 58.5% and 61.8%; in assay [2], 14.7% and 12.7%; in [3] it was 4.7% and 1.53%; in [4], 95.3% and 102%; in assay [5] it was 4.71%; in [6] (Hit No), 5.59%. For the same compound, the inhibition was 122% and 125% in assay [7]; 88.5% and 91% in [8] (Hit Yes); -2.94% and 9.96% in assay [9] (Hit No); 2.76% and 13.3% in assay [10].
In the case of `FC(F)(F)c1ccccc1-c1cc(C(F)(F)F)c2[nH]c(C3=NOC4(CCCCC4)C3)nc2c1`, the inhibition in assay [1] is 0.733%; in assay [2], 0.669%; in [3] it was -6.03%; in assay [4], 2.91%; in assay [5] it was -0.41%; in assay [6] (Hit No), -6.04%. The inhibition in assay [7] was -3.71%; in assay [8] (Hit No), 6.11%; in assay [9] (Hit No), -6.32%; in assay [10] it was 0.00926%.
`N=C(N)NCCSC(=N)N`: the inhibition in assay [1] was -0.668%; in assay [2] it was -9.52%; in [3], -5.32%; in assay [4], 16.4%; in assay [5], -6.96%; in [6] (Hit No) it was -1.08%. Besides, the inhibition in [7] was -5.42%; in assay [8] (Hit No), 8.29%; in [9] (Hit No), -4.9%; in assay [10], -7.55%.
As for `CC(=O)[C@H]1CC[C@H]2[C@@H]3CC[C@H]4C[C@H](O)CC[C@]4(C)[C@H]3CC[C@]12C`, the inhibition in [1] is 31.5%; in assay [2] it was 5.51%; in assay [3] it was -1.14%; in assay [4] it was 25.8%; in assay [5], 13.9%; in assay [6] (Hit Yes) it was 46%. In addition, the inhibition in assay [7] came out at 1.4%; in assay [8] (Hit No), 19.2%; in [9] (Hit No), 7.89%; in assay [10], 9.05%.
For the compound `CN(C)C(=O)c1cc2cnc(Nc3ccc(N4CCNCC4)cn3)nc2n1C1CCCC1`, the inhibition in assay [1] was 59.5%; in [2], -0.842%; in [3] it was 8.98%; in assay [4] it was 24.6%; in assay [5], 21.9%; in [6] (Hit No) it was -3.4%. Also, the inhibition worked out at 16.4% in assay [7], 57.4% in assay [8] (Hit No), 4.33% in assay [9] (Hit No) and 3.31% in [10].
For the compound `Cn1ncnc1COc1nn2c(-c3cc(F)ccc3F)nnc2cc1C(C)(C)C`, the inhibition in assay [1] was -8.96%; in [2], -8.5%; in assay [3], -5.8%; in assay [4], 6.48%; in [5] it was -5.72%; in assay [6] (Hit No), -7.69%. Besides, the inhibition was -2.13% in [7], 6.81% in assay [8] (Hit No), -6.92% in assay [9] (Hit No) and 1.64% in [10].
As for `CC1(C)CCC[C@]2(C)[C@@H](C=O)C(C=O)=CC[C@@H]12`, the inhibition in assay [1] is 14.4%; in [2], 8.57%; in assay [3], 2.98%; in [4] it was 54.4%; in [5], 16.1%; in [6] (Hit No), -1.08%. Further, the inhibition in assay [7] is 80.5%; in [8] (Hit No), 49%; in assay [9] (Hit Yes) it was 88.4%; in [10] it was -1.47%.
Turning to `COc1ccc(OC)c(-c2ccc(NC(=O)c3ccncc3F)cc2)c1`, the inhibition was 28% in assay [1]; -1.37% in assay [2]; 2.08% in [3]; 23.8% in [4]; 24.3% in [5]; -0.258% in [6] (Hit No). In addition, the inhibition in assay [7] was -1.87%; in [8] (Hit No) it was 15.8%; in assay [9] (Hit No), 1.6%; in assay [10], 3.57%.
For the compound `CN[C@@H]1CCc2[nH]c3ccc(C(N)=O)cc3c2C1`, the inhibition in [1] is -3.1%; in assay [2], -0.483%; in assay [3], -5.51%; in assay [4] it was 14.9%; in assay [5], -7.16%; in [6] (Hit No) it was -9.8%. The inhibition in assay [7] is -4.97%; in assay [8] (Hit No), 16.1%; in assay [9] (Hit No), 3.36%; in assay [10], 8.84%.
Turning to `CCCn1c(=O)c2nc(C34CC5CC(CC3C5)C4)[nH]c2n(CCC)c1=O`, the inhibition in assay [1] is -7.5%; in assay [2], 12.2%; in [3], -9.84%; in [4], 16.5%; in [5] it was 5%; in assay [6] (Hit No) it was -8.34%. For the same compound, the inhibition in [7] is 6.8%; in assay [8] (Hit No), 14.1%; in [9] (Hit No) it was -1.3%; in assay [10], 5.88%.
For `O=C(O)COc1cccc(-c2ocnc2-c2nc(-c3ccccc3)c(-c3ccccc3)o2)c1`, the inhibition in [1] was 20.4%; in assay [2] it was -0.35%; in assay [3], -2.35%; in [4] it was 49.9%; in assay [5] it was -6.12%; in assay [6] (Hit No), 8.82%. Further, the inhibition came out at 65% in assay [7], 51% in [8] (Hit No), 18.4% in assay [9] (Hit No) and 1.64% in [10].
Take `Cc1cccc([C@H]2CC[C@@H](N3CCN(c4cccnc4)CC3)CC2)c1` (mixture of isomers): the inhibition in assay [1] is 39%; in [2] it was 9.59%; in assay [3], 1.66%; in [4], 56.1%; in assay [5], 15.5%; in [6] (Hit No), -0.258%. For the same compound, the inhibition was found to be 35.8% in assay [7], 47.1% in [8] (Hit No), 4.72% in assay [9] (Hit No) and 1.34% in assay [10].
Regarding `Clc1ccccc1C(c1ccccc1)(c1ccccc1)n1cccn1`, the inhibition was -4.99% in [1]; -6.46% in [2]; -9.12% in assay [3]; 5.21% in assay [4]; -6.62% in [5]; 15.4% in assay [6] (Hit No). For the same compound, the inhibition in assay [7] is 23.9%; in [8] (Hit No), 10.7%; in assay [9] (Hit No), -9.77%; in assay [10], 5.94%.
